Results from patent US4680304A, “Feed compositions containing 2-(α-pyridyl)-Δ^2 -heterocyclic compounds” (SmithKline Beckman Corporation, priority 1985, dated 1987).
Values joined by “and” are separate entries in the source; they are usually repeats but may differ in a detail not shown here. Equal entries are not always repeated.

Tests used:
Chick growth study = assay type: in vivo, broiler chicks
Method: 512 day old broiler chicks, selected for weight, health and sex, are housed in an environmentally controlled room with temperature at 37.7° and humidity at 40%. Chicks are fed ad libitum. Water is offered ad libitum. A corn or, preferably rye, basal ration is fed during the acclimation period (days 1 and 2). It is, then, mixed with the compound under test or used as a control on days 3-17. Either 8 or 16 chicks are used for each test or control group.

[1] = test system: fermentation in the digestive tract (swine ileal/cecal inoculum); assay: In vitro swine procedure (fistula test; incubation of filtered ileal/cecal inoculum); design: species or system swine (Yorkshire barrow); details: 5 hours at 37°

Cc1nc(-c2ccccn2)no1
Feed/Gain (3-17 day) (Chick growth study; 8.5 ppm in feed): 99.2 % of Control | Weight (17 day) (Chick growth study; 8.5 ppm in feed): 102.3 % of Control | GLU (glucose) ([1]; 166.67 ppm): 113 % of control values | LYS (lysine) ([1]; 166.67 ppm): 110 % of control values

c1ccc(C2=NCCN2)nc1 [2-(2-Pyridyl)-imidazoline]
Feed/Gain (3-17 day) (Chick growth study; 50 ppm in feed): 93.0 % of Control | Weight (17 day) (Chick growth study; 50 ppm in feed): 106.2 % of Control

NC(=NO)c1ccccn1 [2-Amidoximopyridine]
Feed/Gain (3-17 day) (Chick growth study; 10 ppm in feed): 97.0 % of Control and 101.2 % of Control | Weight (17 day) (Chick growth study; 10 ppm in feed): 108.5 % of Control and 99.2 % of Control | Feed/Gain (3-17 day) (Chick growth study; 50 ppm in feed): 97.3 % of Control | Weight (17 day) (Chick growth study; 50 ppm in feed): 103.0 % of Control | LAC (L-lactic acid) ([1]; 166.67 ppm): 111 % of control values | LYS (lysine) ([1]; 166.67 ppm): 99 % of control values | VFA (total of volatile fatty acids) ([1]; 166.67 ppm): 98 % of control values

CC1(O)CC(C(N)=O)N=C1c1ncccc1O (stereo not shown) [3,4-dihydro-4-hydroxy-5-(3-hydroxy-2-pyridinyl)-4-methyl-2H-pyrrole-2-carboxamide]
Feed/Gain (3-17 day) (Chick growth study; 4.5 ppm in feed): 98.4 % of Control | Weight (17 day) (Chick growth study; 4.5 ppm in feed): 101.0 % of Control | Feed/Gain (3-17 day) (Chick growth study; 25 ppm in feed): 92.6 % of Control and 99.9 % of Control | Weight (17 day) (Chick growth study; 25 ppm in feed): 109.4 % of Control and 108.5 % of Control | LYS (lysine) ([1]; 1.67 ppm): 75 % of control values | LYS (lysine) ([1]; 16.67 ppm): 82 % of control values | VFA (total of volatile fatty acids) ([1]; 16.67 ppm): 103 % of control values | LYS (lysine) ([1]; entry (a), 166.7 ppm): 136 % of control values | VFA (total of volatile fatty acids) ([1]; entry (a), 166.7 ppm): 26 % of control values | LYS (lysine) ([1]; entry (b), 166.7 ppm): 142 % of control values | VFA (total of volatile fatty acids) ([1]; entry (b), 166.7 ppm): 43 % of control values

CC1(C)NN=C(c2ccccn2)N1 [5,5-Dimethyl-3-(2'-pyridyl)-4,5-dihydro-1H-triazole]
Feed/Gain (3-17 day) (Chick growth study; 9 ppm in feed): 97.2 % of Control | Weight (17 day) (Chick growth study; 9 ppm in feed): 103.5 % of Control | Feed/Gain (3-17 day) (Chick growth study; 50 ppm in feed): 103.1 % of Control | Weight (17 day) (Chick growth study; 50 ppm in feed): 97.7 % of Control | GLU (glucose) ([1]; 166.67 ppm): 105 % of control values

COC(=O)C1(C)NN=C(c2ccccn2)N1 (stereo not shown) [Methyl 5-methyl-3-(2'-pyridyl)-4,5-dihydro-1H-triazole-5-carboxylate]
Feed/Gain (3-17 day) (Chick growth study; 50 ppm in feed): 91.0 % of Control | Weight (17 day) (Chick growth study; 50 ppm in feed): 108.1 % of Control

Virginiamycin [reference compound]
Feed/Gain (3-17 day) (Chick growth study; 10 ppm in feed (rye)): 96.5 % of Control | Weight (17 day) (Chick growth study; 10 ppm in feed (rye)): 107.1 % of Control | Feed/Gain (3-17 day) (Chick growth study; 10 ppm in feed): 100.4 % of Control | Weight (17 day) (Chick growth study; 10 ppm in feed): 97.7 % of Control | Feed/Gain (3-17 day) (Chick growth study; 50 ppm in feed): 88.5 % of Control | Weight (17 day) (Chick growth study; 50 ppm in feed): 127.8 % of Control | GLU (glucose) ([1]; 1.67 ppm): 131 % of control values | LYS (lysine) ([1]; 1.67 ppm): 134 % of control values | VFA (total of volatile fatty acids) ([1]; 1.67 ppm): 147 % of control values | GLU (glucose) ([1]; 16.67 ppm): 153 % of control values | LYS (lysine) ([1]; 16.67 ppm): 212 % of control values | VFA (total of volatile fatty acids) ([1]; 16.67 ppm): 85 % of control values | GLU (glucose) ([1]; 166.67 ppm): 153 % of control values | LYS (lysine) ([1]; 166.67 ppm): 289 % of control values | VFA (total of volatile fatty acids) ([1]; 166.67 ppm): 39 % of control values
